Results on one compound are retold here after patent publication US10918638B2, “Histone deacetylase 6 inhibition for enhancing T-cell function during anti-tumor response and tumor-peptide vaccination” (H. LEE MOFFITT CANCER CENTER AND RESEARCH INSTITUTE, INC., priority 2014, dated 2021).

The test system of assay [1] is Fc-muMCL1 lymphoma cells. Kind of assay: Fc-muMCL1 lymphoma tumor growth in SCID mice. The conditions noted are these: SCID (lympho-deficient) mice, 35 mg/kg daily for 16 days vs vehicle. It is filed as in vivo. On the procedure:
(§1) FIGS. 3A and 3B. […] (FIG. 3A) C57BL/6 or (FIG. 3B) SCID mice were subcutaneous injected with 3×10^6 Fc-muMCL1 lymphoma cells. After tumor appearance, six mice were treated daily with 35 mg/kg of Tubastatin A and four mice received vehicle control, for 16 days. […] To further evaluate whether these in vivo responses were dependent on T-cells, WT or lympho-deficient, lymphoma-bearing mice were treated with an HDAC6 inhibitor. HDAC6 inhibition led to reduced tumor burden in WT mice, which was absent in lympho-deficient mice, highlighting the importance of lymphocytes in the aforementioned in vivo results. Thus, the role of HDAC6 in regulating immune cells during anti-tumor response appears to be more important than the previously reported role as a regulator of Treg function.

Assay [2] concerns Fc-muMCL1 lymphoma cells. Kind of assay: Fc-muMCL1 lymphoma tumor growth in C57BL/6 mice. The conditions noted are these: C57BL/6 (WT) mice, 35 mg/kg daily for 16 days vs vehicle. It is filed as in vivo. On the procedure: as §1

With `CN1CCc2c(c3ccccc3n2Cc2ccc(C(=O)NO)cc2)C1` [Tubastatin A], the results for the “anti-tumor response / tumor burden” value in the assay on Fc-muMCL1 lymphoma cells [1] and in the assay with Fc-muMCL1 lymphoma cells [2] were “dependent on an intact immune system” and “Enhanced anti-tumor response”, respectively.
